Experimental data reported in ChEMBL document CHEMBL1201862, “PubChem BioAssay data set” (2004).
Calls of active or inactive are those of the source.

Columns and labels:
[1] = target: T1, Disintegrin and metalloproteinase domain-containing protein 17 (Homo sapiens, UniProt P78536); assay: exosite inhibitors of ADAM17, dose response, biochemical (AID 743260)
[2] = inhibition of ADAM10 peptide cleavage – biochemical, FRET peptide substrate, recombinant human ADAM10, selectivity assay for ADAM17 exosite inhibitor project, dose response (AID 743259);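 note: ADAM10 enzyme cleaving a FRET peptide substrate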
[3] = target: T1, Disintegrin and metalloproteinase domain-containing protein 17; assay: inhibition of ADAM17 substrate cleavage – biochemical, quenched FRET substrate, counter-screen for ADAM10 exosite inhibitor project, dose response (AID 743253)
[4] = general mammalian cell viability loss – inhibitor set, cherry-pick, set 2, cytotoxicity control for miR-122 modulator project, dose response (AID 720697); assay type: functional, cell-based
Prothrombin = Prothrombin (Homo sapiens, UniProt P00734); assay: Thrombin 1536 HTS Dose Response Confirmation. [Related pubchem assays: 1046 (Thrombin 1536 HTS; hits were confirmed in this assay)]; assay type: functional
[5] = target: T2, Sentrin-specific protease 6 (Homo sapiens, UniProt Q9GZR1); assay type: functional;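 note: Luminescence-based dose-response confirmatory assay of SENP6 inhibition, following up an ultra-high-throughput screen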
T2 sequence (Q9GZR1 whole entry): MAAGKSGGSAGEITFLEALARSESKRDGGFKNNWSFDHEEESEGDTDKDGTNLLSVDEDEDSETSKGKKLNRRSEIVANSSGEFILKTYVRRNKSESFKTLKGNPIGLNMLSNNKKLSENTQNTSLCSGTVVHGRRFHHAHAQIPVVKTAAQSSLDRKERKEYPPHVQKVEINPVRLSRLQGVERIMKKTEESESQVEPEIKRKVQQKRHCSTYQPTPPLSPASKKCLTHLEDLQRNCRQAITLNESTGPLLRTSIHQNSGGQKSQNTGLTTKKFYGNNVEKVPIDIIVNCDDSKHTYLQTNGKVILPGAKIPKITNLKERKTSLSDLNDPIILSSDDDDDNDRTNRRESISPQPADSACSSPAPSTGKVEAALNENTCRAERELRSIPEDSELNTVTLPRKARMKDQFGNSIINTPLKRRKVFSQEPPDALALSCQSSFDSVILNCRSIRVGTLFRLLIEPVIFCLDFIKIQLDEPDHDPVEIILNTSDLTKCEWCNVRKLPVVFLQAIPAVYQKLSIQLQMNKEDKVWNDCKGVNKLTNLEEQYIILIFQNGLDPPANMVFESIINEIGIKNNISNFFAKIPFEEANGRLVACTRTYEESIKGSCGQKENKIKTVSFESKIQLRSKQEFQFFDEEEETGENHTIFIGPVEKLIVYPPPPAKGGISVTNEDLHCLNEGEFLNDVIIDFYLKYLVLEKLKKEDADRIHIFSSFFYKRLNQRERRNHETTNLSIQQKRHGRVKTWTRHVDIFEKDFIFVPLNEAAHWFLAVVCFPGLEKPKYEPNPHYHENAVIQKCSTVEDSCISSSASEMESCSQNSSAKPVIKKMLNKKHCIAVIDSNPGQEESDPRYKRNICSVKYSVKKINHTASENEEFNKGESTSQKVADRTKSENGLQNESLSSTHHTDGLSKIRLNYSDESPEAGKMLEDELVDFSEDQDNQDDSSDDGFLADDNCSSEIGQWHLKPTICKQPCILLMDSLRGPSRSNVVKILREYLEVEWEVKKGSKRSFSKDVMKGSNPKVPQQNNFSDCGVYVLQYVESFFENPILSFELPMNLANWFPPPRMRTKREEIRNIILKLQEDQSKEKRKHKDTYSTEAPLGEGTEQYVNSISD

[6] = target: T3, Fructose-bisphosphate aldolase (Mycobacterium tuberculosis, UniProt P9WQA3); assay: Fluorescence-based biochemical high throughput dose response assay for inhibitors of the fructose-bisphosphate aldolase (FBA) of M. tuberculosis.; assay type: functional
T3 sequence (P9WQA3 whole entry): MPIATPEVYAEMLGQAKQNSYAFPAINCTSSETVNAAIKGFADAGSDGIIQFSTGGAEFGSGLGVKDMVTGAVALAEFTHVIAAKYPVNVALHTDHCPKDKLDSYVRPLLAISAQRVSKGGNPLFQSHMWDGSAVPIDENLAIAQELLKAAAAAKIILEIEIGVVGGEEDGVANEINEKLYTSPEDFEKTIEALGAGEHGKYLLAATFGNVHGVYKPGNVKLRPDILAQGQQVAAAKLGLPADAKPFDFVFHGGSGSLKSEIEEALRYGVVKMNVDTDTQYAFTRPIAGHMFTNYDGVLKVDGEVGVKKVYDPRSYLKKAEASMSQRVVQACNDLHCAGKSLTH

Caspase-3 = target: T4, Caspase-3 (Homo sapiens, UniProt P42574); assay type: functional;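 note: Dose-response selectivity test against caspase-3 for candidate inhibitors of sentrin-specific proteases (SENPs)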
T4 sequence (P42574 whole entry): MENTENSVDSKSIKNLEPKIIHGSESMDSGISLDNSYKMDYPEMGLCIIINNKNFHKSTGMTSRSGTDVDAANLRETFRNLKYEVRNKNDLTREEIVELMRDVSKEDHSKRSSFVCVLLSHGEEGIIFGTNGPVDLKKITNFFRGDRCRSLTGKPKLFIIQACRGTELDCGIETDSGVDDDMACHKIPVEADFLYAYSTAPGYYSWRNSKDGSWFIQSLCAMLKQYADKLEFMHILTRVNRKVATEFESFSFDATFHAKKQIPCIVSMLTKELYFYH

[7] = target: T5, Sentrin-specific protease 7 (Homo sapiens, UniProt Q9BQF6); assay type: functional;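 note: Luminescence-based dose-response confirmation of ultra-high-throughput screening hits, measuring inhibition of SENP7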
T5 sequence (Q9BQF6 whole entry): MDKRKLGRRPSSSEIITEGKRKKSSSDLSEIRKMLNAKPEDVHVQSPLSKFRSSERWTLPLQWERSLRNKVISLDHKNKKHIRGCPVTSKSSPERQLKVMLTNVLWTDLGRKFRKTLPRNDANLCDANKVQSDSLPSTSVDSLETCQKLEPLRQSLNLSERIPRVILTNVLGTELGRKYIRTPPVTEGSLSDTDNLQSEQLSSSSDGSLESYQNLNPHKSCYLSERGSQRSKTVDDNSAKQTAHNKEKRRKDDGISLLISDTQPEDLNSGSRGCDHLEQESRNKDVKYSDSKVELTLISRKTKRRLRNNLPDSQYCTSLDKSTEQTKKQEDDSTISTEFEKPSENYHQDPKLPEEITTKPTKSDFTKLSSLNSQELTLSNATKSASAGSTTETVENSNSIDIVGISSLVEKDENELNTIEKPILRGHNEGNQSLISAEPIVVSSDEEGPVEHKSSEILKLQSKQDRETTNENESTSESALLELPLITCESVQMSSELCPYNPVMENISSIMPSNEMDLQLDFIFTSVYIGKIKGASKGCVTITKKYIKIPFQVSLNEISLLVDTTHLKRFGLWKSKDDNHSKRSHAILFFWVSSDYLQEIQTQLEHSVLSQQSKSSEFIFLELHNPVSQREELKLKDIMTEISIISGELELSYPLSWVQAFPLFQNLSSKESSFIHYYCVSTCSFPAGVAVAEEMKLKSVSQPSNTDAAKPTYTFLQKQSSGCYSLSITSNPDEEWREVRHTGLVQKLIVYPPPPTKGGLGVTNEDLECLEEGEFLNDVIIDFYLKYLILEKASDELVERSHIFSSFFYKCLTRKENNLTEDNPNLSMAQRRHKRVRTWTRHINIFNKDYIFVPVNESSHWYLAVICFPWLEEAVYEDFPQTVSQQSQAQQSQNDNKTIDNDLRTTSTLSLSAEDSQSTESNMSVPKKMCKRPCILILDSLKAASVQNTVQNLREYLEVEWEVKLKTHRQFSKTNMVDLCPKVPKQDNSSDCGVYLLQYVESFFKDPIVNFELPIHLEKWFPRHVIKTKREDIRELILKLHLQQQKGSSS

[8] = target: T6, Sentrin-specific protease 8 (Homo sapiens, UniProt Q96LD8); assay type: functional;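 note: luminescence read-out of SENP8 inhibition, dose-response confirmation following an ultra-high-throughput screen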
T6 sequence (Q96LD8 whole entry): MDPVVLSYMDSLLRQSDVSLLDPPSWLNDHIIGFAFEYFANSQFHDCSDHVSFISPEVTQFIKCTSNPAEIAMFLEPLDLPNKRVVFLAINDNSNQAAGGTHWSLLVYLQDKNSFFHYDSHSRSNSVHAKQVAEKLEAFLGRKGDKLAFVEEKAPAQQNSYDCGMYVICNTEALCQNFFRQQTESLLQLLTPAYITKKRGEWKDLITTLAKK

[9] = potency of ADAM10 substrate cleavage blockers – biochemical, QFRET, dose response (AID 743254);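 note: ADAM10 enzyme with the DM2 quenched FRET peptide as substrate; EDANS fluorescence gain as the protease cuts the substrate; inhibitor potency against ADAM10 proteolytic activity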
[10] = A cytotoxicity screen of small molecule inhibitors of the PhoP region in Salmonella typhi identified in the primary screen. [Related pubchem assays: 1850, 1864, 1985 ]; assay type: functional
[11] = general cell-killing toxicity readout – plate reader, dry powder samples, cytotoxicity control for PAX8 inhibitor project, dose response (AID 743021); assay type: functional, cell-based
Paired box protein Pax-8 = Paired box protein Pax-8 (Homo sapiens, UniProt Q06710); assay: PAX8 transcriptional activity inhibition in RMG-I – RMG-I cells, luciferase, cherry-pick, dose response (AID 687027); assay type: functional, cell-based;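 note: luciferase reporter driven by Pax8 target thyroperoxidase promoter measured by SteadyGlo luminescence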
[12] = target: Glyceraldehyde-3-phosphate dehydrogenase (Homo sapiens, UniProt P04406)
[13] = target: Heat shock cognate 71 kDa protein (Homo sapiens, UniProt P11142); assay: In Vitro Hsc70 Dose Response Fluorescence Polarization Assay. [Related pubchem assays: 1072 ]
Bcl-2-related protein A1 [14] = target: T7, Bcl-2-related protein A1 (Mus musculus, UniProt Q07440); assay: Bfl-1 binding inhibitors, SAR follow-up, biochemical, fluorescence polarization (AID 1070)
T7 sequence (Q07440 whole entry): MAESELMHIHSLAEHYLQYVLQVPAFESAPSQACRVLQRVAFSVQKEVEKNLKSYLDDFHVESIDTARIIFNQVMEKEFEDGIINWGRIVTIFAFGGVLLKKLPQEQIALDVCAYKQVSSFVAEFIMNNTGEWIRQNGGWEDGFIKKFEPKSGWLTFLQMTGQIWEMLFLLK

Bcl-2-related protein A1 [15] = target: T7, Bcl-2-related protein A1; assay: small-molecule antagonists of Bfl-1/BH3 interaction – biochemical, TR-FRET, mouse Bfl-1, confirmation (AID 621);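 note: TR-FRET binding of GST-Bfl-1 to FITC-labelled Bid peptide via terbium antibody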
[16] = target: Heat shock 70 kDa protein 1A (Homo sapiens, UniProt P0DMV8); assay: inhibition of Hsp70 binding activity – biochemical, fluorescence polarization, SAR follow-up (AID 1072)
[17] = target: Luciferin 4-monooxygenase (Photinus pyralis, UniProt P08659); assay: Counter Screen for Luciferase-based Assay Positives. [Related pubchem assays: 620, 618, 411 ]
HT-1080 = assay: HT1080 cell viability loss – fluorescence readout (AID 620); assay type: functional, cell-based; details: Homo sapiens
[18] = Trypanosoma cruzi growth suppression in host cells – NIH3T3 host cells, beta-gal luminescence, confirmation (AID 2044); assay type: functional, cell-based;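 note: intracellular parasites grown in NIH/3T3 mouse fibroblasts as host cells; luminescent beta-galactosidase reporter signal from transgenic T. cruzi replicating inside host cells; inhibitors lower the luminescence signal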
[19] = NIH3T3 cell viability loss – ATP luminescence, mouse fibroblasts, counter-screen, dose response (AID 2010); assay type: functional, cell-based;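 note: cells exposed to compound for about 90 hours before reading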

T1 sequence (P78536 whole entry, the tested form may be a part): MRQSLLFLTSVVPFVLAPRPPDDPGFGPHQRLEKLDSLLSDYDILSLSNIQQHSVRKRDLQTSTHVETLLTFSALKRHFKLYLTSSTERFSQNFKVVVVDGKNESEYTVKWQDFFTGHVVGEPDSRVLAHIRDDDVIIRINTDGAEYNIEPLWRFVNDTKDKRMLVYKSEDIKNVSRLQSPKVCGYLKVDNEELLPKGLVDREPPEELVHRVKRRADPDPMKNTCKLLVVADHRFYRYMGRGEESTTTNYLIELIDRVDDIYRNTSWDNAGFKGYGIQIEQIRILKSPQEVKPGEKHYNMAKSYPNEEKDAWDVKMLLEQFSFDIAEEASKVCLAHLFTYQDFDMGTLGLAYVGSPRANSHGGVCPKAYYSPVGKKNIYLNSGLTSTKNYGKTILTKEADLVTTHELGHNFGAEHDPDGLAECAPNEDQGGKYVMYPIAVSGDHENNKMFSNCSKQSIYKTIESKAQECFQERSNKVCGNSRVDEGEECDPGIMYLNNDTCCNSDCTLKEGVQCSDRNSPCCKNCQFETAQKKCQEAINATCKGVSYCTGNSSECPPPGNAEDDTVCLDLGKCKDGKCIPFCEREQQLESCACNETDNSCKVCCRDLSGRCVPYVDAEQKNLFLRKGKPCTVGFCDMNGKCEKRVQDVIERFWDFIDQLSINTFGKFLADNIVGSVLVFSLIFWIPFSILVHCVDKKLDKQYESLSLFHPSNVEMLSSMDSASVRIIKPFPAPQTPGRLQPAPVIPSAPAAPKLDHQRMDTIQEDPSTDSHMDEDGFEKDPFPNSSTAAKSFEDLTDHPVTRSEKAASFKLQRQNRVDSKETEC
Sequence of Paired box protein Pax-8 (Q06710 whole entry): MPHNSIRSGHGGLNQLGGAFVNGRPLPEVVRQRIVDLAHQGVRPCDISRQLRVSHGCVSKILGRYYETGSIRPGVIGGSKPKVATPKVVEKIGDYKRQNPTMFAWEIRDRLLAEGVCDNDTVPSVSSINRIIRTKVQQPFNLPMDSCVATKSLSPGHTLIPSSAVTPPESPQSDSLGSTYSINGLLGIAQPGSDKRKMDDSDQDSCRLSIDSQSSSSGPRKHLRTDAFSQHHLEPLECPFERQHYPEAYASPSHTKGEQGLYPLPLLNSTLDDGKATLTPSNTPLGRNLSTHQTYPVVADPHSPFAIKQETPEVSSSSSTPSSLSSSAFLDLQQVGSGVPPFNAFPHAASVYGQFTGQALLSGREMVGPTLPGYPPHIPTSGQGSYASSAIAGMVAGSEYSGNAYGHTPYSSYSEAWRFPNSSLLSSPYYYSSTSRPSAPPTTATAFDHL
Sequence of Luciferin 4-monooxygenase (P08659 whole entry): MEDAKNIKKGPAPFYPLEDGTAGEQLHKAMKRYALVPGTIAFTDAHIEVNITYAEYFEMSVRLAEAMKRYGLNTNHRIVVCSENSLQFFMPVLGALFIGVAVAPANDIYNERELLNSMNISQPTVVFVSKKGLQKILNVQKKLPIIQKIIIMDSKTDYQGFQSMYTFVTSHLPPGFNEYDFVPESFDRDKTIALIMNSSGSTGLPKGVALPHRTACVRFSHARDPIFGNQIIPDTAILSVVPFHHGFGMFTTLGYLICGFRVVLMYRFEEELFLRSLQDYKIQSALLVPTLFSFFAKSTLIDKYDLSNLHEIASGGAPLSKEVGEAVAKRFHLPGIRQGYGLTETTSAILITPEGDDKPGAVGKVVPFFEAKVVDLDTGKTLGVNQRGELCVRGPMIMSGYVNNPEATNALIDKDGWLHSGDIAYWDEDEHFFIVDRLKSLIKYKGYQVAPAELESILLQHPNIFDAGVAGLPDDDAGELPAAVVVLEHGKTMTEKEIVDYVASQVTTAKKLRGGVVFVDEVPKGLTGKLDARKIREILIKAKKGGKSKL
Sequence of Heat shock cognate 71 kDa protein (P11142 whole entry): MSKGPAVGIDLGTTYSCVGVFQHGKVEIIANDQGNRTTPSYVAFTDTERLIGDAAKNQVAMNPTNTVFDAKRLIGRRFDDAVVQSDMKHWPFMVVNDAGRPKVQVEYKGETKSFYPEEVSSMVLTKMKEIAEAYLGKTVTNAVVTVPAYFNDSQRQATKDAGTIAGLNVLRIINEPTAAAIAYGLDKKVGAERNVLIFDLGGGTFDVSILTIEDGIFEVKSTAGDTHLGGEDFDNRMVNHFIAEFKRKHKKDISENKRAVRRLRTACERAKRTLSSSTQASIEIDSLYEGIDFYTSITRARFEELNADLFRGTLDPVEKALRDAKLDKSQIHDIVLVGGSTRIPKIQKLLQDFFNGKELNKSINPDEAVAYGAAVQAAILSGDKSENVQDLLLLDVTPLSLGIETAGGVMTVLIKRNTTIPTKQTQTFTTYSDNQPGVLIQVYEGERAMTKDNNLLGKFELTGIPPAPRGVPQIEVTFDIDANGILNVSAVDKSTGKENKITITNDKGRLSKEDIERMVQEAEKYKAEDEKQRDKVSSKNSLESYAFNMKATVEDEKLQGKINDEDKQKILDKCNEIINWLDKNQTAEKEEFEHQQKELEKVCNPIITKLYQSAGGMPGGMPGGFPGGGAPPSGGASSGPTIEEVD
Sequence of Heat shock 70 kDa protein 1A (P0DMV8 whole entry): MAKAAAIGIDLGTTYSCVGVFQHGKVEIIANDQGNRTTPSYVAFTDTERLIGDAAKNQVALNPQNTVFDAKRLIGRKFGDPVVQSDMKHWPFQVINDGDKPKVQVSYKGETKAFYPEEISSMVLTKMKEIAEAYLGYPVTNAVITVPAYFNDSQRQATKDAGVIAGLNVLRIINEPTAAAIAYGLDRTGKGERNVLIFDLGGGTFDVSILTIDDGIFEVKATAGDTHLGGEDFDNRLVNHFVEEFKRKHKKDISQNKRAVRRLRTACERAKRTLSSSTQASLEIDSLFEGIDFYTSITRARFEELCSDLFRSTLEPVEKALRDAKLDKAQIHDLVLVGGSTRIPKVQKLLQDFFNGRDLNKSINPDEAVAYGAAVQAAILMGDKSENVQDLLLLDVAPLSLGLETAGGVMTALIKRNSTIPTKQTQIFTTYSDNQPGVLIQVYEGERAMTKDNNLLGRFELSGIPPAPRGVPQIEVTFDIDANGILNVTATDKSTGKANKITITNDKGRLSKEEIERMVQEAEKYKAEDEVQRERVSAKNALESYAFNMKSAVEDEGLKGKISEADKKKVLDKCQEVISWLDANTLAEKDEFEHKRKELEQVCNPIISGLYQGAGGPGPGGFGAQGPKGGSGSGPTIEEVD
Sequence of Glyceraldehyde-3-phosphate dehydrogenase (P04406 whole entry): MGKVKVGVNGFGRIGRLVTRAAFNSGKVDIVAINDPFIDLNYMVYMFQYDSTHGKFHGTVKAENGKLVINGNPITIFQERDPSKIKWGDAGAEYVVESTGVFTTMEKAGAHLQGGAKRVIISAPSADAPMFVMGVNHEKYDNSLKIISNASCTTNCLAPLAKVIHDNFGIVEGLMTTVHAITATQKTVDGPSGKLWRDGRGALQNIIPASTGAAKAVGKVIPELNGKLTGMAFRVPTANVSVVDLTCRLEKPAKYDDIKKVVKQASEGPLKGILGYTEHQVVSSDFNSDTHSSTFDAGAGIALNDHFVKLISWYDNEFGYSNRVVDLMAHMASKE

Cc1cccc(Nc2nnc(SCC(=O)c3ccc(Br)s3)s2)c1C
IC50 [1]: > 69.5 µM (inactive) | IC50 [2]: > 69.5 µM (inactive)

CC(C)(C)OC(=O)NCc1ccc(CNC(=O)c2nc[nH]c2C(=O)N[C@@H](Cc2ccccc2)C(=O)OC(C)(C)C)cc1
IC50 [3]: > 69.5 µM (inactive)

COCC(=O)N(C)C[C@@H]1[C@H](c2ccc(-c3ccccc3)cc2)[C@@H](CO)N1C(C)=O
AC50 [4]: 9.74 µM (active)

O=c1oc(-c2ccccc2[N+](=O)[O-])nc2ccccc12
IC50 (Prothrombin): 0.116 µM (active)

COc1ccc(NC(=S)Nc2ccc3cn[nH]c3c2)cc1
IC50 (Prothrombin): 5.6 µM (active)

CC(=O)N1C(=O)/C(=C2\SC(=S)N(NC(=O)c3ccc(O)cc3)C2=O)c2ccccc21
IC50 [5]: 3.1 µM (active) | IC50 [6]: 4.74 µM (active) | IC50 (Caspase-3): 12.9 µM (active) | IC50 [7]: 35.3 µM (active) | IC50 [8]: 10.3 µM (active)

CCc1nc2sc(C)c(C)c2c(=O)n1CCO
AC50 [4]: 8.36 µM (active)

CC(C)(C)OC(=O)NCc1ccc(CNC(=O)c2[nH]cnc2C(=O)N[C@@H](Cc2ccccc2)C(=O)OC(C)(C)C)cc1
IC50 [9]: 9.77 µM (active)

CC(=O)N(CCC1(c2ccc(C)cc2)CCOC(C(C)C)C1)Cc1ccco1 (configuration not stated)
EC50 [10]: > 50 µM (active)

Cc1ccccc1CN(c1ccc(C(=O)Nc2ccccc2C(=O)NCc2ccco2)cc1)S(C)(=O)=O
IC50 [9]: > 69.5 µM (inactive) | IC50 [3]: > 69.5 µM (inactive)

COc1ccc(C2C(=O)c3ccccc3C2=O)cc1OC
IC50 (Prothrombin): > 50 µM (not active)

COC(=O)C1=C(C)N(Cc2cccc(C(F)(F)F)c2)C(NCC2CC2)=NC1c1cccc(C(F)(F)F)c1 (configuration not stated)
AC50 [11]: 20.8 µM (active) | AC50 (Paired box protein Pax-8): 17.2 µM (active)

O=C1C(Cl)=C(N2CCN(CCOCCO)CC2)C(=O)N1c1ccc(Cl)c(Cl)c1
IC50 [12]: > 100 µM (not active) | IC50 [13]: > 100 µM (not active) | IC50 (Bcl-2-related protein A1 [14]): 0.47 µM (active) | IC50 (Bcl-2-related protein A1 [15]): 0.42 µM (active) | IC50 [16]: > 100 µM (not active)

COc1nc(C)ccc1-c1noc(-c2ccco2)n1
EC50 [17]: 1.78 µM (active) | EC50 (HT-1080): > 50 µM (not active)

Cc1sc2nc(SCC(=O)c3ccc(O)c(O)c3)n(Cc3ccco3)c(=O)c2c1C
IC50 [1]: > 69.5 µM (inactive) | IC50 [2]: > 69.5 µM (inactive)

CCOc1ccc(CCN2C(=S)N([C@@H](Cc3ccc(O)cc3)CN3CCC[C@@H]3CN3C(=S)NC[C@@H]3CC(C)C)C[C@@H]2Cc2ccc(O)cc2)cc1
AC50 (Paired box protein Pax-8): 8.84 µM (active) | IC50 [9]: 12.4 µM (inactive) | IC50 [3]: > 69.5 µM (inactive)

CC(C)N(CCn1c(SCC(=O)N2CC(=O)Nc3ccccc32)nc2ccccc2c1=O)C(C)C
EC50 (cells): 0.061 µM (active) | EC50 [18]: < 0.1 µM (active) | EC50 [19]: > 60 µM (not active)

CCCCN(C)CCNC(=O)c1nn(-c2ccc(OC)cc2)c(=O)c2c1c1ccccc1n2C
EC50 (cells): 0.44 µM (active) | EC50 [18]: < 0.1 µM (active) | EC50 [19]: > 60 µM (not active)
